Marks after values point to notes of the source that are not given here.

Test [1] concerns PBQ writhing in mice. The experiment in a line: Anti-inflammatory activity, mouse phenylbenzylquinone (PBQ) writhing test. As to conditions: for Number of writhes: counted over 20 minutes. In kind it is in vivo. How it is done:
Anti-inflammatory activity of DPA using the mouse phenylbenzylquinone (PBQ) writhing test. This is a generally recognized method for evaluating anti-inflammatory drugs of the aspirin/NSAID type, i.e. those drugs which counteract the action of the prostaglandins. Such drugs are useful for treating conditions such as arthritis in animals and humans.
In this method, a solution of PBQ was injected subcutaneously into groups of 6 mice (male, albino, 22-25 grams). Within a few minutes, the mice began to writhe. DPA was injected intra-peritoneally or given by mouth at different times prior to PBQ. The number of writhes was counted over a period of 20 minutes. The effects of DPA were compared to that of similarly administered saline control.
(Writhing tests count abdominal constrictions after an irritant is injected.)

In test [2] the test system is mouse hot plate jumping threshold. The experiment in a line: Analgesic activity, mouse hot plate test. In kind it is in vivo. An excerpt:
Analgesic activity of DPA using the mouse hot plate test. The mouse hot plate is a generally recognized method for evaluating analgesic drugs that act on the endorphin system, e.g., morphine-like drugs and drugs that increase endorphin levels, e.g., DPA. Such drugs are useful for treating many kinds of painful conditions, including arthritis, headache, low back pain, musculoskeletal pain, pre-menstrual pain, and dental pain.
In this method, groups of mice (6 albino mice per group, weighing between 22 and 25 grams) are individually placed on a hot plate at 55° C. and a beaker is placed over the mouse. The time for the mouse to jump in an attempt to escape the painful condition is recorded. An analgesic substance is one which increases the threshold to pain, thereby permitting the mouse to remain on the hot plate for longer times. The effect of the drug is compared to that of a saline control. DPA at different doses was injected intra-peritoneally into the mice 2 hours before they were placed on the hot plate, and jumping time determined over the next 1-2 hours. The effect of DPA was compared with that of an injection of saline.
For studies involving combinations of drugs, the combination was injected at the same time. In the studies shown below, the second drug consisted of indomethacin, diclofenac, or acetaminophen. Each of these drugs is used for treating arthritis, as well as many other painful conditions.

Test [3] has as its system PBQ writhing in mice. The test can be described thus: Anti-inflammatory activity, mouse phenylbenzylquinone (PBQ) writhing test. Type of test: in vivo. The settings on record: for Number of writhes: counted over 20 minutes. The source holds these as a separate data set.
The subject of test [4] is pain in patients with arthritis and other skeletal diseases. The test can be described thus: Efficacy of DPA in humans with arthritis and other musculoskeletal diseases (open-label, cross-over). In kind it is in vivo, human. How it is done:
4. Efficacy of DPA treatment for arthritis and a variety of other musculoskeletal diseases; human studies. Forty-three patients were studied in an open-label, cross-over procedure. Of these, 32 had arthritis. All of the patients had previously been given many treatments, without success, in relieving their pain. Pre-DPA administration treatments used included such potent drugs as Percodan, Darvocet, Valium, and aspirin, as well as acupuncture. Prior to giving DPA 800 mg/day by mouth, all treatments were stopped. Patients were given a card on which they scored their degree of pain, on a scale of 1-4; 1 indicated no relief, 2 indicated approximately 25% relief, 3 indicated approximately 50% relief, and 4 indicated complete relief.

In test [5] the test system is carrageenan swelling of the rat paw. The test can be described thus: Anti-inflammatory activity, rat paw carrageenan method. Type of test: in vivo. As for the experimental part:
Anti-inflammatory activity of DPA using the rat paw carrageenan method. This is a generally recognized method for evaluating anti-inflammatory drugs of the aspirin/NSAID (as used throughout this application NSAID refers to a non-steroidal, anti-inflammatory drug) type or those that counteract the action of the prostaglandins. Such drugs are useful for treating conditions such as arthritis in animals and humans. In this method, the paw of the rat is injected with carrageenan, which causes swelling of the paw due to the accumulation of fluid. […] In this study, DPA was administered by various routes and times into groups of rats (6 male albino rats per group-weight approximately 250 grams) before carrageenan and the degree of swelling was measured by the extent of displacement of water when the paw was immersed into a calibrated cylinder. A placebo consisting of saline solution was similarly administered.

Where [6] appears, read: DPA 800 mg/day by mouth, 43 patients, 32 with arthritis, self-scored pain relief.
The mark [7] stands for this setting: NSAID alone, 20 mg/kg, hot plate at 55° C.

As to `N[C@H](Cc1ccccc1)C(=O)O` [DPA, D-phenylalanine], the “% inhibition of writhing” value in test [1] (intra-peritoneal injection, 2 hours before PBQ, 250 mg/kg) came out at 73%; in test [1] (intra-peritoneal injection, 2 hours before PBQ, 500 mg/kg), 90%; in test [1] (oral administration, 2.5 hours before PBQ, 250 mg/kg), 10%; in test [1] (oral administration, 2.5 hours before PBQ, 1000 mg/kg), 62%; in test [3] (oral administration, 2.5 hours before PBQ, 500 mg/kg) it was 24%; in test [3] (subcutaneous injection, 6 hours before PBQ, 62.5 mg/kg), 35%. The “% inhibition of writhing” value is on record as 36% in test [3] (subcutaneous injection, 6 hours before PBQ, 250 mg/kg) and 75% in test [3] (subcutaneous injection, 6 hours before PBQ, 500 mg/kg). The Number of writhes in test [1] (intra-peritoneal injection, 2 hours before PBQ, 250 mg/kg, saline 125) came out at 34; in test [1] (intra-peritoneal injection, 2 hours before PBQ, 500 mg/kg, saline 125), 13; in test [1] (oral administration, 2.5 hours before PBQ, 250 mg/kg, saline 148), 133; in test [1] (oral administration, 2.5 hours before PBQ, 500 mg/kg, saline 148), 110; in test [1] (oral administration, 2.5 hours before PBQ, 1000 mg/kg, saline 148) it was 56; in test [3] (subcutaneous injection, 6 hours before PBQ, 62.5 mg/kg, saline 166), 108. The Number of writhes in test [3] (subcutaneous injection, 6 hours before PBQ, 250 mg/kg, saline 166) amounted to 106; in test [3] (subcutaneous injection, 6 hours before PBQ, 500 mg/kg, saline 110), 28. The “Increase in the threshold to jumping, compared to control” value (from here on “Increase in the threshold to jumping”) in test [2] (DPA 250 mg/kg intra-peritoneally, 2 hours before hot plate at 55° C.) is 3-fold. In test [2] (mouse hot plate, as shown in Table 3), the “increase of the threshold time to jump, as compared to saline control” value is on record as “three-fold”. In addition, the “Complete relief of pain (number of patients)” value in test [4] (setting [6]) was 2. For the same molecule, the “Excellent relief of pain (number of patients)” value in test [4] (setting [6]) turned out to be 7. The “Moderate relief of pain (number of patients)” value in test [4] (setting [6]) was determined as 19. For the same molecule, the “No relief of pain (number of patients)” value in test [4] (DPA 800 mg/day by mouth, 43 patients, most of these took DPA for only 1-2 weeks) is listed as 15*. In test [4] (DPA alone, 800 mg/day), the “effect on pain in humans” value is listed as “successfully decrease”. Besides, the “% Inhibition of swelling” value in test [5] (oral administration, 150 minutes before carrageenan, 125 mg/kg) turned out to be 7%; in test [5] (oral administration, 150 minutes before carrageenan, 250 mg/kg), 10%; in test [5] (oral administration, 150 minutes before carrageenan, 500 mg/kg) it was 24%; in test [5] (oral administration, 150 minutes before carrageenan, 1000 mg/kg), 62%; in test [5] (oral administration, 150 minutes before carrageenan, 1500 mg/kg), 79%; in test [5] (subcutaneous injection, 120 minutes before carrageenan, 8 mg/kg) it was 15%. Besides, the “% Inhibition of swelling” value is 37% in test [5] (subcutaneous injection, 120 minutes before carrageenan, 125 mg/kg); 35% in test [5] (subcutaneous injection, 120 minutes before carrageenan, 500 mg/kg); 35% in test [5] (subcutaneous injection, 6 hours before carrageenan, dose 62.5); 36% in test [5] (subcutaneous injection, 6 hours before carrageenan, dose 250); 75% in test [5] (subcutaneous injection, 6 hours before carrageenan, dose 500).

Regarding `COc1ccc2c(c1)c(CC(=O)O)c(C)n2C(=O)c1ccc(Cl)cc1` [Indomethacin, indomethacin, reference compound], the “Increase in the threshold to jumping” value in test [2] (setting [7]) is listed as 0.

For `O=C(O)Cc1ccccc1Nc1c(Cl)cccc1Cl` [Diclofenac, diclofenac, reference compound], in test [2] (setting [7]), the “Increase in the threshold to jumping” value stood at 0.

The values are drawn from patent US20060252727A1, “Medicinal compositions and therapeutic methods for treating arthritis and other painful conditions” (priority 2001, published 2006).
